Patent US9260404B1, “Preparation of ambrox from labdanes of Dysoxylum hongkongense, and the preparation of new diterpenoids from Dysoxylum hongkongense” (National Taiwan University, priority 2014, dated 2016)
≈ marks a conversion by molar mass, not a printed value.

Key:
[1] = system: human hepatocellular carcinoma Hep-G2; assay: Cytotoxic assay (MTT), Hep-G2; assay type: cell-based
Description: (§1) Cytotoxic Assay. Human hepatocellular carcinoma Hep-G2, human colon adenocarcinoma WiDr and human laryngeal carcinoma Hep-2 were used as the targets for research, and an antitumor drug, mitomycin C, was the control. The effective dosage (ED50, μg/mL) of the compounds on the cancer cell cytotoxicity was determined by the well-known cytotoxicity assay (3-(4,5-dimethylthiazol-2-yl)-2,5-diphenyltetrazolium bromide (MTT) assay) in the art.

[2] = system: human laryngeal carcinoma Hep-2; assay: Cytotoxic assay (MTT), Hep-2; assay type: cell-based; details: Hep-2, MTT assay
Description: as §1

[3] = system: human colon adenocarcinoma WiDr; assay: Cytotoxic assay (MTT), WiDr; assay type: cell-based
Description: as §1

HSV-1 (KOS strain) = assay: Anti-HSV-1 plaque reduction assay in Vero cells; assay type: cell-based, Herpes Simplex Virus-1; details: for inhibition (in vitro inhibitory activity against the HSV-1 virus): at 10 μM, plaque formation in Vero cells; for inhibition at 10 µM: Human alphaherpesvirus 1, plaque formation in Vero cells, read-out: inhibition (in vitro inhibitory activity against the HSV-1 virus)
Description: Anti Herpes Simplex Virus-1 (HSV-1) Assay, Cell Culture and Virus. Vero cells were cultured in minimal essential medium (MEM; GIBCO®, Grand Island, N.Y.) supplemented with 10% fetal calf serum (FCS; Hyclone™, Logan, Utah), 100 U/mL penicillin and 100 μg/mL streptomycin and incubated at 37° C. in a 5% CO2 incubator. To prepare a stock of HSV-1 (KOS strain, VR-1493, ATCC), Vero cells were infected with HSV-1 at a multiplicity of infection points on three plaque forming units (PFU)/cell and harvested at 24 hours postinfection and centrifuged at 1500×g (Centrifuge 5810 R, Eppendorf) at 4° C. for 20 minutes. The supernatant was collected and stored at −70° C. for use.
Plaque Reduction Assay. The bioassay followed a procedure described previously (Kuo et al., Samarangenin B from Limonium sinense Suppresses Herpes Simplex Virus Type 1 Replication in Vero Cells by Regulation of Viral Macromolecular Synthesis. Antimicrob. Agents Chemother., 2002, 46(9): 2854-2864.). […] The viruses were adsorbed for 1 hour at 37° C. and 1% methylcellulose was added to each well. After 5 days, the virus plaques formed in Vero cells were counted by crystal violet staining. The activities of various compounds and acyclovir for inhibition of plaque formation were calculated.

[4] = system: elastase release by human neutrophils; assay: Elastase release by human neutrophils in response to FMLP/CB; assay type: cell-based; details: 10 μg/mL
Description: (§2) Anti-inflammatory Assays, Inhibitory Effect on Superpxide Anion Generation and Elastase Release by Human Neutrophils. Neutrophils were obtained by means of dextran sedimentation and Ficoll centrifugation. Superoxide generation and elastase release were carried out according to a procedure described previously (Hwang et al., Inhibition of Superoxide Anion and Elastase Release in Human Neutrophils by 3′-Isopropoxychalcone via a cAMP-dependent Pathway. Br. J. Pharmacol., 2006, 148(1): 78-87.; and Liaw et al., Frajunolides E-K, Briarane Diterpenes from Junceella fragilis. J. Nat. Prod., 2008, 71(9): 1551-1556.). Superoxide anion production was assayed by monitoring the superoxide dismutase-inhibitable reduction of ferricytochrome c. Elastase release experiments were performed using MeO-Suc-Ala-Ala-Pro-Val p-nitroanilide as the elastase substrate.

[5] = system: superoxide anion generation by human neutrophils; assay: Superoxide anion generation by human neutrophils in response to FMLP/CB; assay type: cell-based; details: 10 μg/mL
Description: as §2

## C=C[C@@]1(C)O[C@]2(C)CC[C@H]3C(C)(C)C(=O)CC[C@]3(C)[C@H]2C[C@H]1O [Compound 8, Dysongensin B]
[1]
  ED50 cytotoxic activity against Hep-G2 cells: 18.05 ± 0.58 µg/mL (≈ 56.3 µM)
[2]
  ED50 cytotoxic activity against Hep-2 cells: 16.07 ± 0.17 µg/mL (≈ 50.1 µM)
[3]
  ED50 cytotoxic activity against WiDr cells: 19.13 ± 0.56 µg/mL (≈ 59.7 µM)

## C=C[C@@](C)(O)[C@@H]1C[C@@H]2[C@@]3(C)CCC(=O)C(C)(C)[C@@H]3CC[C@@]2(C)O1 [Compound 9, Dysongensin C]
HSV-1 (KOS strain)
  inhibition (in vitro inhibitory activity against the HSV-1 virus): 32.7±4.0%

## C=C[C@@](C)(O)[C@H]1C[C@@H]2[C@@]3(C)CCC(=O)C(C)(C)[C@@H]3CC[C@@]2(C)O1 [Compound 10, Dysongensin D]
HSV-1 (KOS strain)
  inhibition at 10 µM: 25.2 ± 6%

## C=C[C@](C)(O)[C@H]1C[C@@H]2[C@@]3(C)CCC(=O)C(C)(C)[C@@H]3CC[C@@]2(C)O1 [Compound 11, Dysongensin E]
[4]
  anti-inflammatory effect on elastase release: 31.29±6.67%

## C=C[C@](C)(O)[C@H]1C[C@@H]2[C@@]3(C)CC[C@H](O)C(C)(C)[C@@H]3CC[C@@]2(C)O1 [Compound 12, Dysongensin F]
[2]
  ED50 cytotoxic activity against Hep-2 cells: 17.92 ± 0.25 µg/mL (≈ 55.6 µM)

## C=C[C@@](O)(CO)[C@H]1C[C@@H]2[C@@]3(C)CCC4C[C@@]4(C)[C@@H]3CC[C@@]2(C)O1 (stereo partly drawn) [Compound 13, Dysongensin G]
HSV-1 (KOS strain)
  inhibition (in vitro inhibitory activity against the HSV-1 virus): 29.3±9.0%
[1]
  ED50 cytotoxic activity against Hep-G2 cells: 37.78 ± 0.81 µg/mL (≈ 118 µM)

## C=C[C@](O)(CO)[C@@H]1C[C@@H]2[C@@]3(C)CCC4C[C@@]4(C)[C@@H]3CC[C@@]2(C)O1 (stereo partly drawn) [Compound 14, Dysongensin H]
HSV-1 (KOS strain)
  inhibition at 10 µM: 29.7 ± 6%
[1]
  ED50 cytotoxic activity against Hep-G2 cells: 16.86 ± 0.85 µg/mL (≈ 52.6 µM)
[3]
  ED50 cytotoxic activity against WiDr cells: 15.45 ± 0.73 µg/mL (≈ 48.2 µM)
[5]
  anti-inflammatory effect on superoxide anion generation: 25.33±4.04%

## Dysongensin A [Compound 1]
[1]
  ED50 cytotoxic activity against Hep-G2 cells: 20.34 ± 0.58 µg/mL
[3]
  ED50 cytotoxic activity against WiDr cells: 18.67 ± 0.56 µg/mL
